The values that follow are results of earlier work, collected in Sander's compilation of Henry's law constants (doi:10.1063/1.1564818).

This data set can be described thus: Henry solubility constant Hcp at 298.15 K (mol/(m3 Pa)). Particulars: reference: Fernández-Prini et al. (2003); cited value.
Turning to `[Ne]` [neon], the “Henry solubility constant Hcp” value was 4.5e-06.
With `[HH]` [hydrogen], the “Henry solubility constant Hcp” value was 7.8e-06.
`[Kr]` [krypton]: the “Henry solubility constant Hcp” value was 2.5e-05.
On to `O=C=O` [carbon dioxide], for which the “Henry solubility constant Hcp” value is 0.00033.
In the case of `FS(F)(F)(F)(F)F` [sulfur hexafluoride], the “Henry solubility constant Hcp” value is 2.5e-06.
With `O=O` [oxygen], the “Henry solubility constant Hcp” value is 1.3e-05.
Turning to `[C-]#[O+]` [carbon monoxide], the “Henry solubility constant Hcp” value was 9.7e-06.
Regarding `[He]` [helium], the “Henry solubility constant Hcp” value is 3.9e-06.
Consider `[Xe]` [xenon], for which the “Henry solubility constant Hcp” value was 4.4e-05.
As for `[Ar]` [argon], the “Henry solubility constant Hcp” value was 1.4e-05.
